Legend:
[1] = test system: CVF-induced acute lung injury; experiment: Cobra venom factor (CVF)-induced acute lung injury in the rat; type: in vivo; conditions: 200 μg prior to CVF (FIG. 16: 0.6 mg/Kg)
Protocol: Groups of rats were pretreated with either vehicle, SLN-OH (0.6 mg/Kg), or with SLX-OH (0.6 mg/Kg) 5 minutes prior to administration of either CVF or PBS. Each bar represents the mean of 6 animals and vertical lines represent the standard error of the mean.
Groups of rats were pretreated with either vehicle or Z at the indicated doses 5 minutes prior to administration of CVF or PBS. Each point represents the mean of 6 animals and vertical lines represent the standard error of the mean.
The intravenous injection of CVF produces intravascular complement activation which results in lung injury, defined as an increase in neutrophil accumulation within the lung, an increase in pulmonary vascular permeability and in lung hemorrhage. It is likely that intravascular complement activation results in the generation of a wide range of inflammatory mediators. Of particular relevance to the studies described here is generation of the split fifth complement component, C5a, which can stimulate the release of histamine from circulating basophils and tissue mast cells. […] The expression of selectins, including P-selectin, is a necessary first step in the process of leukocyte adherence to vascular endothelium.
Animals were dosed with different oligosaccharide preparations or phosphate buffered saline (PBS) five minutes before administration of cobra venom factor (20 units/Kg, i.v.). Included in this material was an aliquot of ^125 I-bovine serum albumin (0.5 μCi) and ^51 Cr labelled autologous red blood cells (0.5 μCi) for measuring plasma extravasation and hemorrhage respectively. Thirty minutes after administration of the cobra venom factor the animals were anesthetized with ketamine hydrochloride (10 mg/Kg) and exsanguinated via the posterior vena cava. The lung vasculature was then perfused through the right cardiac ventricle with 10 mL of PBS. The lungs were removed and the amount of radioactivity remaining within the tissue assessed with a gamma scintillation counter. Increased pulmonary vascular permeability was measured as the ratio of ^125 I in lung tissue compared with the amount present in 1 mL of venous blood obtained at the time of death. Lung hemorrhage was measured as the ratio of ^51 Cr in lung tissue compared with the amount present in 1 mL of venous blood obtained at the time of death. Neutrophil accumulation in lungs was determined by measuring the myeloperoxidase activity of lungs homogenized in PBS. Myeloperoxidase activity in lung supernatants was assayed by measuring the change in absorbance at 460 nm resulting from decomposition of H2 O2 in the presence of o-dianisidine

[2] = test system: IgG immune complex-induced acute lung injury; experiment: IgG immune complex-induced acute lung injury in the rat; type: in vivo, rat (male Long-Evans); conditions: conclusion in words
[3] = test system: IgA immune complex induced lung injury; experiment: IgA immune complex-induced acute lung injury in the rat; type: in vivo, rat (male Long-Evans)
Protocol: Groups of rats were dosed with either vehicle, SLN-OH (100 μpg), or with SLX-OH (100 μg) […] post induction of inflammation. Each bar represents the mean of 6 animals and vertical lines represent the standard error of the mean.
Adult male (300 g) specific pathogen-free Long-Evans rats purchased from Charles River Labs (Portage, Mich.) were employed in the studies. For the induction of IgG immune complex pulmonary inflammation rabbit polyclonal IgG rich in antibody to bovine serum albumin (antiBSA) was purchased from Organon Teknika (Westchester, PA). Intraperitoneal ketamine (10 mg/Kg) was administered for anesthesia. 2.5 mg of anti-BSA in a volume of 300 μl was instilled intratracheally via a small intratracheal catheter during inspiration after surgical exposure of the trachea. Intravenous injection of 10 mg BSA was injected intravenously to generate immune complex formation. Trace amounts of ^125 I-BSA and ^51 Cr-RBC were administered with the BSA as markers for plasma and RBC extravasation respectively. Rats were sacrificed 4 h later and lung injury was assessed by the ratio of radiolabelled albumin in the lungs relative to the circulation (permeability), the ratio of RBC in the lungs relative to the circulation (hemorrhage) and the amount of myeloperoxidase activity in a lung homogenate (neutrophil accumulation). For induction of IgA immune complex induced lung injury 1.2 mg of a murine myeloma IgA protein specific for dinitrophenol (DNP) was instilled intratracheally and 3.3 mg DNP-bovine serum albumin injected intravenously. Lung injury was assessed in the same manner described for IgG-induced lung injury.
SLX-OH, Z, the non-fucosylated control oligosaccharide SLN, or an equivalent volume of PBS were injected intravenously in three equally divided doses at 2, 2.5, and 3 h following deposition of immune complexes. This schedule for injections was selected since it coincides with the time during which rapid expression of E-selectin occurs in the pulmonary vasculature.

E-Selectin = target: T1, E-Selectin (Homo sapiens, UniProt P16581); experiment: Glycolipid liposome inhibition of HL-60 cell adhesion to IL-1β activated endothelial cells; type: cell-based; conditions: liposomes; for inhibition of adhesion of HL-60 cells to activated endothelial cells: 4° C. (FIG. 5); for reduction of HL-60 cell adhesion to activated endothelial cells: 37° C.
T1 construct: adhesion of HL-60 cells
T1 sequence (P16581 22-610): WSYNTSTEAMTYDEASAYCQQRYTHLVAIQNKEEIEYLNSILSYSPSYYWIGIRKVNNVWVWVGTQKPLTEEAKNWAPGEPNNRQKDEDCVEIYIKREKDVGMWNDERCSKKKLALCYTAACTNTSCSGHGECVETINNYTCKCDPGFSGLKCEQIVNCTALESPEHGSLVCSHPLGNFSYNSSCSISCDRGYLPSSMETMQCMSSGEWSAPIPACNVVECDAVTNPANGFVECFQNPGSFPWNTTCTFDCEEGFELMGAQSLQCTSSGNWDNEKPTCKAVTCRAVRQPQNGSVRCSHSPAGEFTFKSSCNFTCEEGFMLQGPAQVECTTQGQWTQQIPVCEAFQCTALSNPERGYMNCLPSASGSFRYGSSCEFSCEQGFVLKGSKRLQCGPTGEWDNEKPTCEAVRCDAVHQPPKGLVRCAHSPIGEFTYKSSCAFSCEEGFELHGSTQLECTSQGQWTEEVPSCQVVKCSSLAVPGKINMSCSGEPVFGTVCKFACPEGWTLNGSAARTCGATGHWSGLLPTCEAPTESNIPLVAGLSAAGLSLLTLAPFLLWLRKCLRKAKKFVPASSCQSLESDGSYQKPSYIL
Description: This Example describes the preparation of liposomes which contain various biosynthetically produced glycosphingolipids on which the terminal carbohydrate units are either SLe^x, Le^x, or similar but not identical compounds. The ability of the liposomes which contain SLe^x or SLe^x mimetics to block the binding of SLe^x -expressing HL-60 cells and LEC11 cells to endothelial cells that have been stimulated to express E-Selectin by treatment with IL-1β is shown.
Materials: The glycosphingolipids used in this experiment are shown in Table I; they were obtained from the Biomembrane Institute, Seattle, Wash., and were either purified or biosynthetically produced and characterized by NMR and mass spectrometry, as generally described in Hakomori, S. I., et al., J. Biol. Chem., 259:4672 (1984), and Fukushi Y., et al., J. Biol. Chem. 259:10511 (1984), incorporated by reference herein. […] Nonsialylated diLex was similarly synthesized using nLc6 as substrate and the cell line NCI H-69. See Holmes et al., J. Biol. Chem. 260:7619 (1985), incorporated by reference herein. SPG and SH were purified from bovine red blood cells, and nLc6 was produced by chemical removal of the terminal sialosyl residue from SH.
Liposomes containing the glycosphingolipids were formed as follows: 100 μg of glycolipid was added to 300 μg phosphatidylcholine (Sigma, egg yolk) and 500 μg cholesterol (Sigma) in chloroform-methanol (2:1) and the whole solution evaporated to dryness by N2 in 15 ml screwcap tubes.
Passage 3 HUVEC, which had been grown to confluence on a gelatin coated 48 well assay plate (Costar) were used as the source of endothelial cells. The plates were prepared as previously described. Two sets of triplicate wells were left unstimulated as controls. Fourteen sets of triplicates were stimulated with IL-1β at 30 μg/ml in a 0.5 ml volume of EGM-UV. Cells were stimulated for exactly 4 hrs. HL-60 cells and LEC11 cells were cultured as described above.
1. One 48 well Costar cluster dish containing HUVEC grown to confluence on gelatin was removed from the incubator and the medium in each well was removed with a pasteur pipette and replaced either with 0.5 ml fresh EGM-UV medium or with the same medium containing 30 μg/ml IL-1β,and the plate then returned to the incubator for 4 hrs.
2. HL-60 cells and LEC11 cells were harvested and washed in CRPMI. A viable cell count was made using trypan blue. 6×10^6 cells of each cell type were radiolabeled as follows: 3×10^6 cells of each type were placed in each of two 10 ml test tubes and 300 μl of ^51 Cr (450 μCi) (New England Nuclear) was added to each tube. The tubes were allowed to incubate 1 hr. at 37° C. with gentle agitation.
3. Radiolabeled HL-60 and LEC11 cells were washed 3× in CRPMI and pooled into one tube. […]

P-Selectin = target: T2, P-Selectin (Homo sapiens, UniProt P16109); experiment: Glycolipid liposome inhibition of HL-60 cell adhesion to activated platelets; type: cell-based; conditions: liposomes, FIG. 7
T2 construct: endogenous in cells
T2 sequence (P16109 42-830): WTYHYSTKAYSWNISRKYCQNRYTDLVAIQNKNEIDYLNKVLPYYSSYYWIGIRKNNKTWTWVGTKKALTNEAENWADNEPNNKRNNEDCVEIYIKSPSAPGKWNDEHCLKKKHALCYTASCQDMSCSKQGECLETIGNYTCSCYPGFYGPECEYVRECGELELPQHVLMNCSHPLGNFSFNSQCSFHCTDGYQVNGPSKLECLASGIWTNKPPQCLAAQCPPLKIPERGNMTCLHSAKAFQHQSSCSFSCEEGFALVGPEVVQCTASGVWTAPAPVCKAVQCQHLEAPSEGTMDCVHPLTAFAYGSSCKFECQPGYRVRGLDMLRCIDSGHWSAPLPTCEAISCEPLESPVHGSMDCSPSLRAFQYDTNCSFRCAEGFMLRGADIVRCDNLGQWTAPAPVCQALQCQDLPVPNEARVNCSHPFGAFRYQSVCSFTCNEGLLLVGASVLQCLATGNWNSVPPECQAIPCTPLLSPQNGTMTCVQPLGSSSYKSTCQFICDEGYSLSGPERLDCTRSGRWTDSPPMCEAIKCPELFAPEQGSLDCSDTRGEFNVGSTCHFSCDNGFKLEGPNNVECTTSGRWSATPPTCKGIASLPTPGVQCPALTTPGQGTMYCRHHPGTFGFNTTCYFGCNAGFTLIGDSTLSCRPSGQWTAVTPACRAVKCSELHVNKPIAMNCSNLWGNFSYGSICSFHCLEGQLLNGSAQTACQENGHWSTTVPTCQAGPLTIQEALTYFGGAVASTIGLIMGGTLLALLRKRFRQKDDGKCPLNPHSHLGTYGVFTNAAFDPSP
Protocol: The assays generally followed the protocol described in Larsen et al., Cell 63: 467-474 (1990), which is incorporated herein by reference.
Glycosphingolipids and liposomes were prepared as described in Example IV. The platelets were prepared as described in Example V, except that blocking of Fc receptors was not performed. HL60 cells were prepared as described above.
1. 20 μl of activated platelet preparation was placed in each of 28 1.5 ml microfuge tubes (14 duplicate samples).
2. 20 μl of the diluted liposomes at […], 5 μg or 2 μg, or 20 μl of the control buffers, were added to the appropriate tube of each duplicate.
3. The platelets were incubated with the liposome preparations for 20 min. at room temp.
4. Neutrophils or HL-60 cells at 2×10^6 cells/ml were each added to one set of liposome-treated platelets. 20 μl of cell suspension were added to each tube.
5. The tubes were mixed and allowed to stand at room temperature for 20 min. Then they were applied to a hemacytometer and the cells were scored as positive (2 or more platelets attached/cell) or negative (less than 2 platelets attached/cell).

| Compound | reduction of permeability value ([1]; P<0.001) [%] | reduction of hemorrhage ([1]; P<0.004) [%] | reduction of MPO content ([1]; P<0.006) [%] | effect on IgG immune complex-induced neutrophil accumulation / lung injury [2] | protection assessed by vascular permeability and hemorrhage ([3]; FIG. 20, 100 μg) | effect on IgA immune complex-induced neutrophil accumulation and pathological sequelae ([3]; conclusion in words) | inhibition of adhesion of HL-60 cells to activated endothelial cells (E-Selectin) | reduction of HL-60 cell adhesion to activated endothelial cells (E-Selectin) [%] | inhibition of adhesion of HL-60 cells to activated platelets (P-Selectin) |
| --- | --- | --- | --- | --- | --- | --- | --- | --- | --- |
| CC(=O)N[C@H]1[C@H]([C@H](O)[C@H](O)CO)O[C@@](O[C@H]2[C@@H](O)[C@@H](CO)O[C@@H](O[C@H]3[C@H](O[C@@H]4O[C@@H](C)[C@@H](O)[C@@H](O)[C@@H]4O)[C@@H](NC(C)=O)C(O)O[C@@H]3CO)[C@@H]2O)(C(=O)O)C[C@@H]1O (stereo partly drawn) [SLX-OH, NeuAcα2,3Gal,β1 4(Fucα1,3)GlcNAc-OH] | 43 | 41 | 35 | blocked IgG | did not afford any protection from IgA immune complex induced lung injury | not IgA |  |  |  |
| III^3 V^3 Fuc2 VI^3 NeuAcnLc6 [S-diLe^x] |  |  |  |  |  |  | dramatically inhibited | 70 | dramatically inhibited |
| III^3 V^3 Fuc2 nLc6 [di-Le^x, reference compound] |  |  |  |  |  |  | minimal inhibition | 40 | minimal inhibition |
